Results from patent publication US11078198B2 (BRISTOL-MYERS SQUIBB COMPANY, priority 2017, dated 2021).

How the values were obtained:
human FXR = molecular target: T1, human FXR (Homo sapiens, UniProt Q96RI1); assay: transient human FXR/Gal4-luciferase reporter assay; format: cell-based; conditions: Gal4-hFXR transfected HEK293 reporter cells; relative to 8 μM GW-4064
T1 construct: expressed in transfected cells; host or cells: HEK293 cells stably carrying a 5xGal4-response-element firefly luciferase reporter, transiently transfected with pcDNA3.1-Gal4-FXR
T1 sequence (Q96RI1 262-486 limits assumed): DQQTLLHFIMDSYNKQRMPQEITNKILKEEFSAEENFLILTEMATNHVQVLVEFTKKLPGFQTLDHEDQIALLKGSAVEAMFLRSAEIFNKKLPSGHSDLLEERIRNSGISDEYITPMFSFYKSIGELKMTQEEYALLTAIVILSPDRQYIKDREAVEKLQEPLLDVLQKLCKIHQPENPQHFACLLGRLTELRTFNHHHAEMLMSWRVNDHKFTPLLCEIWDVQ
How it was run: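 HEK293 cells stably carrying a 5×Gal4-response-element firefly luciferase reporter, transiently transfected overnight with a CMV-driven Gal4 DNA-binding domain/human FXR ligand-binding domain fusion.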

Fgf15 = assay: Acute mouse in vivo assay, Fgf15 gene expression in ileum; conditions: @ 6 h
Experimental: (§1) Acute Mouse In Vivo Assay:
(§2) Male, C57BL6/NTac mice, weighing 25-28 g, are purchased from Taconic Labs (Hudson, N.Y.) and maintained on Teklad Global 18% Protein Rodent Diet (Harlan Laboratories). After 1 week acclimation, mice are sorted into groups based upon body weight. Mice are administered a single oral dose of vehicle or experimental compound. Systemic compound exposure is evaluated in plasma derived from blood collected via the submandibular vein at 1 hour post-dose, and at study termination (6 h). At study termination, the animals are euthanized and rapidly dissected. The medial lobe of the liver is divided, with one half being homogenized and analyzed for compound exposure, and the other half saved in RNAlater (Thermo-Fisher Scientific). The ileum is also dissected and preserved in RNAlater. Tissue samples in RNAlater are homogenized with MP Biomedicals' beads. RNA is extracted using the MagMax-96 Total RNA Isolation kit (Thermo-Fisher Scientific) according to the manufacturer's protocol. RNA Concentration is determined with the Nano-Drop 8000 Spectrophotometer (Thermo Fisher). Reverse transcription is done with Invitrogen's SuperScript® VILO cDNA Synthesis Kit according to the manufacturer's protocol. Real time PCR is done with Applied Biosystems' Taqman PCR master mixture according to the manufacturer's protocol. All primers are purchased from Thermo-Fisher Scientific. Mouse genes analyzed include Nr0b2 (which encodes the small heterodimer partner, SHP), Abcb11 (which encodes the bile salt excretion pump, BSEP), Cyp7a1, & Cyp8b1 in liver, and Fgf15, Fabp6 (which encodes ileal bile acid binding protein, I-BABP), Slc51a (which encodes organic solute transporter alpha subunit, OSTA), and Slc51b (which encodes organic solute transporter beta subunit, OSTB) in the ileum. The statistical significant changes in FGF15 gene expression are expressed as fold increase and CYP7A1 expression as a percent reduction relative to vehicle control.

Cyp7a1 = assay: Acute mouse in vivo assay, Cyp7a1 gene expression in liver; conditions: @ 6 h
Experimental: as §1, §2

EC50 (human FXR) [nM] | SMILES | Fgf15 expression, fold increase relative to vehicle control (Fgf15; single oral dose 3 mg/kg) | Cyp7a1 expression, percent reduction relative to vehicle control (Cyp7a1; single oral dose 3 mg/kg) [%] | Fgf15 expression, fold increase relative to vehicle control (Fgf15; single oral dose 30 mg/kg) | Cyp7a1 expression, percent reduction relative to vehicle control (Cyp7a1; single oral dose 30 mg/kg) [%]
73 | CS(=O)(=O)NC(=O)c1cc(C(F)(F)F)c2cc(N3CCC4(C=C(c5c(-c6c(Cl)cncc6Cl)noc5C5CC5)C4)CC3)ccc2n1 [Example 184, 6-(2-(5-Cyclopropyl-3-(3,5-dichloropyridin-4-yl)isoxazol-4-yl)-7-azaspiro[3.5]non-1-en-7-yl)-N-(methylsulfonyl)-4-(trifluoromethyl)quinoline-2-carboxamide] | +28 × | −99 |  | 
 | O=C(O)c1cc(C(F)(F)F)c2cc(N3CCC4(C=C(c5c(-c6c(Cl)cncc6Cl)noc5C5CC5)C4)CC3)ccc2n1 [Example 85, 6-(2-(5-cyclopropyl-3-(3,5-dichloropyridin-4-yl)isoxazol-4-yl)-7-azaspiro[3.5]non-1-en-7-yl)-4-(trifluoromethyl)quinoline-2-carboxylic acid] |  | −94 |  | 
32 | COc1cc(C(=O)O)nc2ccc(N3CCC4(C=C(c5c(-c6c(Cl)cncc6Cl)noc5C5CC5)C4)CC3)cc12 [Example 108, 6-(2-(5-Cyclopropyl-3-(3,5-dichloropyridin-4-yl)isoxazol-4-yl)-7-azaspiro[3.5]non-1-en-7-yl)-4-methoxyquinoline-2-carboxylic acid] | +14 × | −97 |  | 
 | O=C(O)c1ccc2cc(N3CCC4(C=C(c5c(-c6c(Cl)cccc6Cl)noc5C5CC5)C4)CC3)ccc2n1 [Example 20, 6-(2-(5-Cyclopropyl-3-(2,6-dichlorophenyl)isoxazol-4-yl)-7-azaspiro[3.5]non-1-en-7-yl) quinoline-2-carboxylic acid] |  | −98 |  | 
 | O=C(O)c1cc(F)c2nc(N3CCC4(C=C(c5c(-c6c(Cl)cccc6Cl)noc5C5CC5)C4)CC3)sc2c1 [Example 1, 2-(2-(5-Cyclopropyl-3-(2,6-dichlorophenyl)isoxazol-4-yl)-7-azaspiro[3.5]non-1-en-7-yl)-4-fluorobenzo[d]thiazole-6-carboxylic acid] | +18 × | −99 | +31 × | −99
